Test results reported in patent US10906951B2, “Modified natural killer cells and natural killer cell lines having increased cytotoxicity” (ONK THERAPEUTICS LIMITED, priority 2015, dated 2021).
Like-named read-outs stand apart in the source and are kept apart here.

Assays:
CTLA4 gene = assay: gRNA cleavage activity, T7E1 mismatch detection assay in K562 cells, CTLA4; assay type: cell-based, human; settings: CRISPR/Cas9, T7E1 mismatch assay, FIG. 5
Description: (§1) Two gRNA candidates were selected for each target gene and their cleavage efficacies in K562 cells determined. The sequences of the gRNA candidates are shown in Table 1 and the Protospacer Adjacent Motif (PAM) relates to the last 3 bases of the sequence. The flanking regions of the gRNA sequences on the LIR2 gene (SEQ ID NO: 1) and the CTLA4 gene (SEQ ID NO: 7) are shown in FIGS. 1 and 2, respectively.
(§2) K562 cells were transfected with the prepared gRNA constructs (FIG. 3) and subsequently harvested for PCR amplification. The presence of GFP expression was used to report successful incorporation of the gRNA construct into the K562 cells. This confirmed expression of the Cas9 gene and therefore the ability to knock out expression of the LIR2 and CTLA4 genes.
(§3) The cleavage activity of the gRNA constructs was determined using an in vitro mismatch detection assay. T7E1 endonuclease I recognises and cleaves non-perfectly matched DNA, allowing the parental LIR2 and CTLA4 genes to be compared to the mutated genes following CRISPR/Cas9 transfection and non-homologous end joining (NHEJ).

DR5 = settings: low dose, 24 hours, FIG. 18
Procedure: Bortezomib was bought from Millennium Pharmaceuticals. Mouse anti-human DR5-AF647 (catalog number: 565498) was bought from BD Pharmingen. The stained cell samples were analyzed on BD FACS Canto II. (1) MM cell lines RPM18226 and MM1.S were grown in RPM11640 medium (Sigma, St Louis, Mo., USA) supplemented with 2 mM L-glutamine, 10 mM HEPES, 24 mM sodium bicarbonate, 0.01% of antibiotics and 10% fetal bovine serum (Sigma, St Louis, Mo., USA), in 5% CO2 atmosphere at 37° C. (2) MM cells were seeded in 6-well plates at 1×10^6/mL, 2 mL/well. (3) MM cells were then treated with different doses of Bortezomib for 24 hours. (4) DR5 expression in Bortezomib treated/untreated MM cells was then analyzed by flow cytometry (FIG. 18).

MM1.S cells = assay: Bortezomib-induced sensitization of MM1.S cells to KHYG-1 cells expressing TRAIL variant; assay type: cell-based; settings: MM1.S pretreated with 2.5 nM for 24 hours, 1:1 co-culture 12 hours, FIG. 19
Procedure: KHYG-1 cells were transfected with the TRAIL variant (TRAIL D269H/E195R), as described above in Example 6.
(1) Bortezomib treated/untreated MM1.S cells were used as target cells. MM1.S cells were treated with 2.5 nM of Bortzeomib or vehicle (control) for 24 hours.
(2) 6 hours after electroporation of TRAIL variant mRNA, KHYG-1 cells were then cultured with MM cells in 12-well plate. After washing, cell concentrations were adjusted to 1×10^6/mL, before mixing KHYG-1 and MM1.S cells at 1:1 ratio to culture for 12 hours.
(3) Flow cytometric analysis of the cytotoxicity of KHYG-1 cells was carried out. The co-cultured cells were collected, washed and then stained with CD2-APC antibody (5 uL/test), AnnexinV-FITC (5 uL/test) and SYTOX-Green (5 uL/test) using AnnexinV binding buffer.
(4) Data were further analyzed using FlowJo 7.6.2 software. CD2-negative population represents MM1.S cells. KHYG-1 cells are strongly positive for CD2. Finally, the AnnexinV-FITC and SYTOX-Green positive cells in the CD2-negative population were analyzed.
Flow cytometric analysis of apoptosis was performed in Bortezomib-pretreated/untreated MM1.S cells co-cultured with KHYG-1 cells electroporated with/without TRAIL variant (FIG. 19).

MM cells = tested on: MM cells
Procedure: (1) MM cell lines RPM18226 and MM1.S were grown in RPM11640 medium (Sigma, St Louis, Mo., USA) supplemented with 2 mM L-glutamine, 10 mM HEPES, 24 mM sodium bicarbonate, 0.01% of antibiotics and 10% fetal bovine serum (Sigma, St Louis, Mo., USA), in 5% CO2 atmosphere at 37° C.
(2) MM cells were seeded in 6-well plates at 1×10^6/mL, 2 mL/well.
(3) MM cells were then treated with different doses of Bortezomib for 24 hours.

LIR2 gene = assay: gRNA cleavage activity, T7E1 mismatch detection assay in K562 cells, LIR2; assay type: cell-based, human; settings: CRISPR/Cas9, T7E1 mismatch assay, FIG. 4
Description: as §1, §2, §3

KHYG-1 cells = assay: KHYG-1 cell viability after CMA treatment; assay type: cell-based; settings: 100 nM CMA or vehicle, FIG. 21
Procedure: (§4) (2) KHYG-1 cells (6 hours after electroporation, cultured in penicillin/streptomycin free RPMI1640 medium) were further treated with 100 nM CMA or equal volume of vehicle (DMSO) for 2 hours.

perforin = assay: CMA-induced reduction of perforin expression in KHYG-1 cells, flow cytometry; assay type: cell-based, human; settings: 100 nM for 2 hours, FIG. 20
Procedure: Mouse anti-human perforin-AF647 (catalog number: 563576) was bought from BD pharmingen. Concanamycin A (catalog number: SC-202111) was bought from Santa Cruz Biotechnology. The stained cell samples were analyzed using a BD FACS Canto II.
(1) KHYG-1 cells were cultured in RPM11640 medium containing 10% FBS (fetal bovine serum), 2 mM L-glutamine, penicillin (100 U/mL)/streptomycin ([…]), and IL-2 (10 ng/mL).
as §4
(3) The cells were collected (1×10^6 cells/test) by centrifugation (1500 rpm×5 minutes) and the supernatant was aspirated.
(4) The cells were fixed in 4% paraformaldehyde in PBS solution at room temperature for 15 minutes.
(5) The cells were washed with 4 mL of FACS Buffer (PBS, 0.5-1% BSA, 0.1% sodium azide) twice.
(6) The cells were permeabilized with 1 mL of PBS/0.1% saponin buffer for 30 minutes at room temperature.
(7) The cells were washed with 4 mL of PBS/0.1% saponin buffer.
(8) The cells were re-suspended in 100 uL of PBS/0.1% saponin buffer, before adding 5 uL of the antibody to each tube and incubating for 30 minutes on ice. […]
(11) The cells were analyzed on the flow cytometer (BD FACS Canto II). […]

decoy receptor DcR1 = target: T1, decoy receptor DcR1 (Homo sapiens, UniProt O14798); settings: surface plasmon resonance; WO 2009/077857; cited from earlier work
T1 sequence (O14798 26-236): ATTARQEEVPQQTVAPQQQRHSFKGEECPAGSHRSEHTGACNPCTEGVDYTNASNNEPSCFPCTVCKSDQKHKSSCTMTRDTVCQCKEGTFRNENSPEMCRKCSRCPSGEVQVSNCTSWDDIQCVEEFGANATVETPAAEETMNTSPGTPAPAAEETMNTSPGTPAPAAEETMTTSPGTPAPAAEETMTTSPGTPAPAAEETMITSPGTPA

DR4 = DR4 (Homo sapiens, UniProt O00220); settings: surface plasmon resonance; WO 2009/077857; cited from earlier work

g15 gRNA: CTLA4 g15 gRNA sequence CCTTGTGCCGCTGAAATCCAAGG (expressed or natural sequence; listed as Homo sapiens)
gRNA cleavage efficiency (CTLA4 knockout) (CTLA4 gene): 26%

g7 gRNA: CTLA4 g7 gRNA sequence CACTCACCTTTGCAGAAGACAGG (expressed or natural sequence; listed as Homo sapiens)
gRNA cleavage efficiency (CTLA4 knockout) (CTLA4 gene): 32%

CC(C)C[C@H](NC(=O)[C@H](Cc1ccccc1)NC(=O)c1cnccn1)B(O)O [Bortezomib]
DR5 expression (DR5; MM1.S cells): increase DR5 expression | DR5 expression (DR5; RPMI8226 cells): increase DR5 expression | sensitivity of MM cells to KHYG-1 cells expressing the TRAIL variant (MM1.S cells): induced sensitivity of MM cells | toxicity at high doses (MM cells; high doses): high toxicity resulting in most of the MM cells dying | induction of apoptosis associated with DR5 upregulation (MM cells; low dose, data not shown): minor induction of apoptosis

g18 gRNA: LIR2 g18 gRNA sequence CGAATCGCAGGTGGTCGCACAGG (expressed or natural sequence; listed as Homo sapiens)
gRNA cleavage efficiency (LIR2 knockout) (LIR2 gene): 10%

C/C=C/[C@H]1O[C@@](O)([C@@H](C)[C@H](O)[C@H](C)[C@H]2OC(=O)/C(OC)=C/C(C)=C/[C@@H](C)[C@@H](O)[C@@H](CC)[C@@H](O)[C@H](C)C/C(C)=C/C=C/[C@@H]2OC)C[C@@H](O[C@H]2C[C@@H](O)[C@H](OC(N)=O)[C@@H](C)O2)[C@@H]1C [CMA, Concanamycin A]
viability of KHYG-1 cells (KHYG-1 cells): no negative effects | perforin expression level (perforin): significantly decreased

g9 gRNA: LIR2 g9 gRNA sequence GAGTCACAGGTGGCATTTGGCGG (expressed or natural sequence; listed as Homo sapiens)
gRNA cleavage efficiency (LIR2 knockout) (LIR2 gene): 11%

Wildtype TRAIL: wildtype TRAIL ligand; DNA sequence SEQ ID NO: 13
Kd (decoy receptor DcR1): > 20 nM | Kd (DR4): > 2 nM
